From publication PMC12856293 (The Journal of Biological Chemistry, 2025)

Legend:
[1] = target: T1, TyzAMtb (Mycobacterium tuberculosis, UniProt P95232)
T1 construct: gene Rv2336

[2] = target: T2, TrzSMsmeg (Mycolicibacterium smegmatis, UniProt A0QUG4); format: biochemical
T2 construct: gene MSMEG_2198
T2 sequence (A0QUG4 1-723): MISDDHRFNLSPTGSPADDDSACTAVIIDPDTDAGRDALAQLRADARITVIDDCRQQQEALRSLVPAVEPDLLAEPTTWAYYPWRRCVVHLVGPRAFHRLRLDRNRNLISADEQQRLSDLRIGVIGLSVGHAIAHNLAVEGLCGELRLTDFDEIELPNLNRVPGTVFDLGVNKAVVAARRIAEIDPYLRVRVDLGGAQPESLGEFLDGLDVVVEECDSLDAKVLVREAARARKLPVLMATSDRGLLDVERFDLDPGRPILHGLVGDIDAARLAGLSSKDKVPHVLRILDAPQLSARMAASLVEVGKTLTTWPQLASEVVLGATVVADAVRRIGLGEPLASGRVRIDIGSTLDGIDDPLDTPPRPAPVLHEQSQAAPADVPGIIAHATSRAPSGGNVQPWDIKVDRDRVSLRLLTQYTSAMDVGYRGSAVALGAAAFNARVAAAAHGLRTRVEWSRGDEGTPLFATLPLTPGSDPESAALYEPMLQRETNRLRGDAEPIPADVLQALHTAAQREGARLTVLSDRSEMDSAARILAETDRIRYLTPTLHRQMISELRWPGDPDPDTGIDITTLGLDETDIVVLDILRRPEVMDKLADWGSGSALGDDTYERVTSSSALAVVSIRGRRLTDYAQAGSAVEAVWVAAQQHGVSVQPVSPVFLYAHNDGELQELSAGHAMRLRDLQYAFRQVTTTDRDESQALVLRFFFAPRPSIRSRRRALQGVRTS

T1 sequence (P95232 1-322): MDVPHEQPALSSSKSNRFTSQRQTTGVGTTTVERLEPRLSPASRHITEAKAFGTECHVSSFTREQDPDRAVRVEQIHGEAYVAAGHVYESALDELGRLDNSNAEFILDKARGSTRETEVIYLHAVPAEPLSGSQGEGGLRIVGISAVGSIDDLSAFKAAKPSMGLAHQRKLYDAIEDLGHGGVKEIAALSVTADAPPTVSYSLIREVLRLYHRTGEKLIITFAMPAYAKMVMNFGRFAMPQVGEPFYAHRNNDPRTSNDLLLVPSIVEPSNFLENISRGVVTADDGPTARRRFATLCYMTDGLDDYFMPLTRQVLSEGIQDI

CCCCCCCCCCCC(=O)SCCNC(=O)CCNC(=O)[C@H](O)C(C)(C)COP(=O)(O)OP(=O)(O)OC[C@H]1O[C@@H](n2cnc3c(N)ncnc32)[C@H](O)[C@@H]1OP(=O)(O)O [C12:0-CoA]
LC-QTOF endpoint product detection [1]: we detected substantial amounts of C12:0-Tyr, C12:0-tyrazolone

CCCC(=O)N[C@@H](Cc1c[nH]c2ccccc12)C(=O)O [C4:0-tryptophan]
LC-QTOF product detection, coupled with TrzAMtb [2]: we detected significant amounts of C4:0-tryptophan, produced by TrzAMtb, and C4:0-tryptazolone

Nc1ncnc2c1ncn2[C@@H]1O[C@H](COP(=O)(O)OP(=O)(O)OP(=O)(O)O)[C@@H](O)[C@H]1O [ATP]
LC-QTOF product detection, coupled with TrzAMtb [2]: only the N-acyl tryptophan was observed when ATP was omitted from the reaction
